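48-hour exposure; five concentrations; linearly interpolated endpoints. TGI: total growth inhibition.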

Common to all, as to assay: NCI anticancer screen, dose series, 48 h
Experiment [1] has as its system SN12C renal.
In experiment [2] the test system is PC-3 prostate.
For experiment [3], the system named is HOP-62 NSCLC.
In experiment [4] the test system is TK-10 renal.
Experiment [5] relates to CCRF-CEM leukemia.
Experiment [6] deals with DU-145 prostate.
For experiment [7], the system named is MALME-3M melanoma.
Experiment [8] relates to KM12 colon.
Experiment [9] deals with HCT-116 colon.
For experiment [10], the system named is MCF7 breast.
Experiment [11] concerns 786-0 renal.
Experiment [12] deals with MOLT-4 leukemia.
The test system of experiment [13] is OVCAR-4 ovarian.
The subject of experiment [14] is EKVX NSCLC.
The test system of experiment [15] is RXF 393 renal.
Experiment [16] concerns SK-OV-3 ovarian.

Consider `CCCC(O)c1cn(C(NC(=O)c2ccccc2)P(=O)(OCC)OCC)nn1` (stereo not given), for which the TGI in experiment [1], in experiment [2], in experiment [3], in [4], in [5] and in [6] was more than 100 µM each time. Also, the TGI in [7], in experiment [8], in experiment [9], in experiment [10], in experiment [11] and in experiment [12] was more than 100 µM each time. In addition, the TGI in [13], in [14] and in experiment [15] was more than 100 µM in each case.
Turning to `COc1cc(C2=NNC(=O)c3ccccc3N2c2nc(-c3cccs3)nc3ccc(Br)cc23)cc(OC)c1OC`, the TGI in experiment [16] was more than 100 µM; in [1] it was more than 100 µM; in experiment [2] it was more than 100 µM; in [3], 59.2 µM; in [4], 89.9 µM; in experiment [5], more than 100 µM. For the same compound, the TGI in experiment [6] was 87.9 µM; in [7], 59.1 µM; in experiment [8], 30.5 µM; in experiment [9], 26.9 µM; in experiment [10] it was 7.28 µM; in [11] it was more than 100 µM. The TGI in experiment [13] and in [14] was 86.4 µM each time.
With `C(=Nc1ccc(-c2nc3ccccc3[nH]2)cc1)c1ccc[nH]1`, the TGI in experiment [1] is more than 100 µM; in experiment [2], more than 100 µM; in experiment [3] it was more than 100 µM; in experiment [4], more than 100 µM; in experiment [5], 85.1 µM; in [6] it was more than 100 µM. The TGI in experiment [7], in [8], in experiment [9], in experiment [10], in [11] and in experiment [12] was more than 100 µM each time. The TGI in experiment [13], in experiment [14] and in [15] was more than 100 µM each time.
For `CC(=O)c1ccccc1NCC(=O)Nn1cnc2ccc(S(=O)(=O)Nc3ccccc3C(C)=O)cc2c1=O`, the TGI in experiment [16], in experiment [1], in experiment [2], in [3], in [4] and in experiment [5] was more than 100 µM in each case. Besides, the TGI in experiment [6], in [7], in [8], in experiment [9], in [10] and in experiment [11] was more than 100 µM throughout. The TGI in [12], in [13] and in experiment [14] was more than 100 µM each time.
Regarding `O=C(NC1CCCCC1)c1cc2ccccc2cc1O`, the TGI in experiment [16] is more than 100 µM; in experiment [2] it was 99 µM; in experiment [3], more than 100 µM; in [4], more than 100 µM; in experiment [5], more than 100 µM; in experiment [6] it was more than 100 µM. Moreover, the TGI in experiment [8] was more than 100 µM; in experiment [9], 47.6 µM; in experiment [10], more than 100 µM; in [11] it was 84.5 µM; in experiment [13], more than 100 µM; in experiment [14] it was more than 100 µM. This compound came in with a TGI in experiment [15] of 58.5 µM.
In the case of `Cc1ccc2c(=O)c(C(=O)Nn3c(C)csc3=S)c[nH]c2n1`, the TGI in [1], in experiment [2], in experiment [3], in [4], in experiment [5] and in [6] was more than 100 µM each time. In addition, the TGI in experiment [7], in experiment [8], in [9], in experiment [10], in [11] and in [12] was more than 100 µM each time. In addition, the TGI in experiment [13], in [14] and in experiment [15] was more than 100 µM each time.
`CCOP(=O)(OCC)C(c1ccccc1)N(C(=O)NC(F)(F)F)c1cccc(F)c1` (stereo not given): the TGI in experiment [1], in [2], in [3], in experiment [4], in experiment [5] and in experiment [6] was more than 100 µM throughout. Moreover, the TGI in experiment [7], in experiment [8], in experiment [9], in [10], in experiment [11] and in experiment [12] was more than 100 µM throughout. Further, the TGI in experiment [14] and in experiment [15] was more than 100 µM in each case.
On to `COc1cc(C2SC(C)C(=O)N2c2ccc(-c3csc(NS(=O)(=O)c4ccc(Cl)c(OC)c4)n3)cc2)ccc1O` (stereo not given), for which the TGI in experiment [16] was more than 100 µM; in [1] it was 56.7 µM; in [2] it was more than 100 µM; in experiment [3], more than 100 µM; in experiment [4], more than 100 µM; in experiment [5], more than 100 µM. Besides, the TGI in experiment [6] was more than 100 µM; in experiment [7], 82.4 µM; in experiment [8] it was 48.3 µM; in experiment [9], more than 100 µM; in [10], more than 100 µM; in experiment [11] it was more than 100 µM. The TGI in [12] is more than 100 µM; in experiment [13], 79.9 µM; in experiment [15] it was more than 100 µM.
For `O=C(CCCCCC(=O)N1CC(CCl)c2ccc([N+](=O)[O-])cc21)N1CC(CCl)c2ccc([N+](=O)[O-])cc21` (stereo not given), the TGI in experiment [16], in [1], in experiment [2], in experiment [3], in [4] and in experiment [5] was more than 100 µM in each case. The TGI in experiment [6], in [8], in experiment [9], in experiment [10], in experiment [11] and in experiment [12] was more than 100 µM each time. Moreover, the TGI in experiment [13], in [14] and in experiment [15] was more than 100 µM in each case.
Take `Cc1ccc(C(=O)N(Cc2ccccc2)Cc2ccccc2)cc1N=NN(C)C`: the TGI is 99.2 µM in experiment [16]; more than 81.1 µM in experiment [1]; more than 100 µM in experiment [2]; 90 µM in experiment [3]; more than 100 µM in [4]; more than 100 µM in [5]. Also, the TGI in experiment [6] was more than 100 µM; in experiment [7], 40.6 µM; in [8], more than 86.5 µM; in [9] it was 30 µM; in [10], 65.9 µM; in experiment [11], more than 100 µM. The TGI in experiment [12] was more than 100 µM; in experiment [13] it was more than 87.4 µM; in experiment [14], more than 100 µM.
Consider `COc1ccc(/C=C2\CCS(=O)(=O)c3ccccc3C2=O)cc1OC`, for which the TGI in experiment [16], in [1], in experiment [2], in [3], in [4] and in experiment [5] was more than 100 µM in each case. For the same compound, the TGI in [6], in experiment [8], in experiment [9], in [10], in [11] and in [12] was more than 100 µM in each case. Further, the TGI in experiment [13] was 71.5 µM; in experiment [14], more than 100 µM; in experiment [15], more than 100 µM.
In the case of `CC(C)CCCC(C)[C@H]1CC[C@H]2[C@@H]3CC[C@H]4C[C@@H](CCC=C(c5cc(Cl)c(O)c(C(=O)OC(C)C)c5)c5cc(Cl)c(O)c(C(=O)OC(C)C)c5)CC[C@]4(C)[C@H]3CC[C@]12C` (stereo not given in full), the TGI in [16], in [1], in experiment [2], in experiment [3], in experiment [5] and in experiment [6] was more than 50 µM each time. In addition, the TGI in experiment [8], in experiment [9], in experiment [10], in experiment [11], in experiment [12] and in [13] was more than 50 µM each time. Besides, the TGI in [14] and in [15] was more than 50 µM in each case.
Take `CCOC(=O)c1c(-c2ccc(Cl)cc2)c(C#N)c(=S)n(C2OC(COC(C)=O)C(OC(C)=O)C(OC(C)=O)C2OC(C)=O)c1-c1ccccc1` (stereo not given): the TGI in [16], in experiment [1], in [2], in experiment [3], in [4] and in experiment [5] was more than 100 µM each time. Moreover, the TGI in experiment [6], in experiment [7], in [8], in experiment [9], in experiment [10] and in experiment [11] was more than 100 µM throughout. The TGI in [12], in experiment [13] and in [15] was more than 100 µM throughout.
For `CCCCCCNC(=O)CCC(NC(=O)c1ccc(N(C)Cc2cnc3nc(N)nc(N)c3n2)cc1)C(=O)NCCCCCC` (stereo not given), the TGI in experiment [16] was 37.2 µM; in [1], more than 100 µM; in experiment [2], more than 100 µM; in experiment [3], more than 100 µM; in experiment [4], more than 100 µM; in experiment [5] it was more than 100 µM. Also, the TGI in experiment [6] is more than 100 µM; in experiment [8], more than 100 µM; in experiment [9], more than 100 µM; in experiment [10] it was 34.1 µM; in [11] it was more than 100 µM; in [12] it was more than 100 µM. Moreover, the TGI in experiment [13], in experiment [14] and in [15] was more than 100 µM throughout.
Turning to `COC(=O)[C@H]1NC(=O)CCSSC1(C)C`, the TGI in experiment [1], in [2], in experiment [3], in [4], in experiment [5] and in [6] was more than 100 µM in each case. Also, the TGI in experiment [7], in [8], in experiment [9], in [10], in [11] and in experiment [12] was more than 100 µM in each case. Besides, the TGI in [13], in experiment [14] and in [15] was more than 100 µM each time.
For `COC1CC(OC2C(C)OC(OC3C(C)OC(OC4C(O)CC(O[C@H]5CC[C@@]6(C)C(=CC[C@]7(O)[C@@H]6C[C@@H](OC(C)=O)[C@@]6(C)[C@]7(O)CC[C@@]6(O)C(C)=O)C5)OC4C)CC3OC)CC2OC)OC(C)C1O` (stereo not given in full), the TGI in [16], in experiment [1], in [2], in experiment [3], in experiment [4] and in experiment [5] was more than 12.5 µM throughout. The TGI in [6], in experiment [7], in [8], in experiment [9], in experiment [10] and in [11] was more than 12.5 µM throughout. In addition, the TGI in [12], in [13] and in experiment [14] was more than 12.5 µM throughout.
With `CCOC(=O)C(CC(C)C)NC(=O)CSc1nnc(COc2ccc(Cl)cc2)n1-c1ccccc1` (stereo not given), the TGI was determined as 59.8 µM in experiment [16]; 28.9 µM in [1]; 30.8 µM in [2]; 36.8 µM in experiment [3]; 33.1 µM in [4]; 23.8 µM in [5]. Also, the TGI in experiment [6] turned out to be 32.4 µM; in experiment [7], 37.8 µM; in experiment [8] it was 39.7 µM; in experiment [9] it was 28 µM; in [10] it was 35 µM; in [11], 28.6 µM. Moreover, the TGI in experiment [12] was more than 100 µM; in [13], 36.2 µM; in [15], 34.3 µM.
As for `CSC1C(=O)Nc2ccc3ccccc3c21` (stereo not given), the TGI was more than 100 µM in [16]; 41.9 µM in experiment [1]; 35 µM in [2]; 71.8 µM in experiment [3]; 33.2 µM in experiment [4]; 89.3 µM in [5]. Also, the TGI is more than 100 µM in [6]; more than 100 µM in [7]; 35.5 µM in [8]; 29.9 µM in experiment [9]; more than 100 µM in experiment [10]; 32.6 µM in [11]. Besides, the TGI in experiment [12] was more than 100 µM; in experiment [13], 39.9 µM; in experiment [14], 38.2 µM.

The record behind these values is PubChem BioAssay (NCI).
